From ChEMBL document CHEMBL3091424, “Anti-tubercular agents. Part 8: synthesis, antibacterial and antitubercular activity of 5-nitrofuran based 1,2,3-triazoles” (Bioorg Med Chem Lett, 2013)
≈ marks a conversion by molar mass, not a printed value. Calls of active or inactive are those of the source. No cut-off for these calls is given here.

Columns and labels:
Bacillus subtilis [1] = assay: Antimicrobial activity against Bacillus subtilis MTCC 121 after 24 hrs by well diffusion method; type: functional; settings: MTCC 121, 24 h
Staphylococcus aureus [2] = assay: Antimicrobial activity against Staphylococcus aureus MLS-16 MTCC 2940 after 24 hrs by well diffusion method; type: functional; settings: MLS-16 MTCC 2940, 24 h
Bacillus subtilis [3] = assay: Bactericidal activity against Bacillus subtilis MTCC 121 after 24 hrs; type: functional; settings: MTCC 121, 24 h
MRC5 = assay: Cytotoxicity against human MRC5 cells; type: cell-based
Staphylococcus aureus [4] = assay: Antimicrobial activity against Staphylococcus aureus MTCC 96 after 24 hrs by well diffusion method; type: functional; settings: MTCC 96, 24 h
Raoultella planticola [5] = assay: Bactericidal activity against Klebsiella planticola MTCC 530 after 24 hrs; type: functional; settings: MTCC 530, 24 h
Candida albicans = assay: Antimicrobial activity against Candida albicans MTCC 3017 at 150 ug/ml after 24 hrs by well diffusion method; type: functional, organism-based
Vero = assay: Cytotoxicity against african green monkey Vero cells; type: cell-based; settings: Chlorocebus sabaeus
Escherichia coli [6] = assay: Bactericidal activity against Escherichia coli MTCC 739 after 24 hrs; type: functional; settings: MTCC 739, 24 h
[7] = system: Mycobacterium tuberculosis; assay: Antimicrobial activity against Mycobacterium tuberculosis H37Rv after 3 weeks by broth dilution method; type: functional; settings: for MIC: 504 h
Pseudomonas aeruginosa [8] = assay: Antimicrobial activity against Pseudomonas aeruginosa MTCC 2453 after 24 hrs by well diffusion method; type: functional; settings: MTCC 2453, 24 h
Micrococcus luteus [9] = assay: Bactericidal activity against Micrococcus luteus MTCC 2470 after 24 hrs; type: functional; settings: MTCC 2470, 24 h
Enterococcus faecalis = assay: Antimicrobial activity against vancomycin -resistant Enterococcus faecalis after 24 hrs by microdilution method; type: functional
Escherichia coli [10] = assay: Antimicrobial activity against Escherichia coli MTCC 739 after 24 hrs by well diffusion method; type: functional; settings: MTCC 739, 24 h
Staphylococcus aureus [11] = assay: Antimicrobial activity against methicillin-resistant Staphylococcus aureus after 24 hrs by microdilution method; type: functional
Micrococcus luteus [12] = assay: Antimicrobial activity against Micrococcus luteus MTCC 2470 after 24 hrs by well diffusion method; type: functional; settings: MTCC 2470, 24 h
Staphylococcus aureus [13] = assay: Bactericidal activity against Staphylococcus aureus MLS-16 MTCC 2940 after 24 hrs; type: functional; settings: MLS-16 MTCC 2940, 24 h
Pseudomonas aeruginosa [14] = assay: Bactericidal activity against Pseudomonas aeruginosa MTCC 2453 after 24 hrs; type: functional; settings: MTCC 2453, 24 h
Staphylococcus aureus [15] = assay: Bactericidal activity against Staphylococcus aureus MTCC 96 after 24 hrs; type: functional; settings: MTCC 96, 24 h
Raoultella planticola [16] = assay: Antimicrobial activity against Klebsiella planticola MTCC 530 after 24 hrs by well diffusion method; type: functional; settings: MTCC 530, 24 h
Staphylococcus aureus [17] = assay: Antibiofilm activity against Staphylococcus aureus MTCC 96 after 24 hrs by crystal violet assay; type: functional, organism-based; settings: for IC50: MTCC 96, 24 h
Raoultella planticola [18] = assay: Antibiofilm activity against Klebsiella planticola MTCC 530 after 24 hrs by crystal violet assay; type: functional, organism-based; settings: for IC50: MTCC 530, 24 h
Staphylococcus aureus [19] = assay: Antibiofilm activity against Staphylococcus aureus MLS-16 MTCC 2940 after 24 hrs by crystal violet assay; type: functional, organism-based; settings: MLS-16 MTCC 2940, 24 h
[20] = system: Mycobacterium tuberculosis; assay: Ratio of linezolid MIC to compound MIC for Mycobacterium tuberculosis H37Rv after 3 weeks by broth dilution method; type: functional

| SMILES | MIC (Bacillus subtilis [1]) [µg/mL] | MIC (Staphylococcus aureus [2]) [µg/mL] | MBC (Bacillus subtilis [3]) [µg/mL] | IC50 (MRC5) [µM] | MIC (Staphylococcus aureus [4]) [µg/mL] | MBC (Raoultella planticola [5]) [µg/mL] | Activity (Candida albicans) | IC50 (Vero) [µM] | MBC (Escherichia coli [6]) [µg/mL] | MIC (Pseudomonas aeruginosa [8]) [µg/mL] | MBC (Micrococcus luteus [9]) [µg/mL] | MIC (Escherichia coli [10]) [µg/mL] | MIC (Micrococcus luteus [12]) [µg/mL] | MBC (Staphylococcus aureus [13]) [µg/mL] | MBC (Pseudomonas aeruginosa [14]) [µg/mL] | MBC (Staphylococcus aureus [15]) [µg/mL] | MIC (Raoultella planticola [16]) [µg/mL] | IC50 (Staphylococcus aureus [17]) [µg/mL] | IC50 (Raoultella planticola [18]) [µg/mL] | IC50 (Staphylococcus aureus [19]) [µg/mL] | further results |
| --- | --- | --- | --- | --- | --- | --- | --- | --- | --- | --- | --- | --- | --- | --- | --- | --- | --- | --- | --- | --- | --- |
| COc1ccc(Cn2cc(CNC(=O)c3ccc([N+](=O)[O-])o3)nn2)cc1[N+](=O)[O-] | 2.34 (≈ 5.82 µM) | 4.68 (≈ 11.6 µM) | 2.34 (≈ 5.82 µM) | 198 | > 150 | 18.8 (≈ 46.6 µM) | inactive | 176 | 18.8 (≈ 46.6 µM) | > 150 | 9.37 (≈ 23.3 µM) | 18.8 (≈ 46.6 µM) | 4.68 (≈ 11.6 µM) | 4.68 (≈ 11.6 µM) | > 150 | > 150 | 9.37 (≈ 23.3 µM) | 91.2 (≈ 227 µM) | 6.1 (≈ 15.2 µM) | 4.1 (≈ 10.2 µM) | MIC [7]: 16 µg/mL (≈ 39.8 µM); MIC (Enterococcus faecalis): > 64 µg/mL; MIC (Staphylococcus aureus [11]): 8 µg/mL (≈ 19.9 µM) |
| COc1ccc(Cn2cc(CNC(=O)c3ccc([N+](=O)[O-])o3)nn2)cc1 | 2.34 (≈ 6.55 µM) | 9.37 (≈ 26.2 µM) | 4.68 (≈ 13.1 µM) | 146 | 37.5 (≈ 105 µM) | 37.5 (≈ 105 µM) | inactive | 274 | 75 (≈ 210 µM) | > 150 | 2.34 (≈ 6.55 µM) | 75 (≈ 210 µM) | 2.34 (≈ 6.55 µM) | 9.37 (≈ 26.2 µM) | > 150 | 75 (≈ 210 µM) | 37.5 (≈ 105 µM) | 12.6 (≈ 35.3 µM) | 24 (≈ 67.2 µM) | 6.1 (≈ 17.1 µM) | Activity [7]: inactive |
| COc1cc(Cn2cc(CNC(=O)c3ccc([N+](=O)[O-])o3)nn2)ccc1F | 2.34 (≈ 6.23 µM) | 9.37 (≈ 25 µM) | 4.68 (≈ 12.5 µM) | 155 | > 150 | 37.5 (≈ 99.9 µM) | inactive | 225 | > 150 | > 150 | 1.17 (≈ 3.12 µM) | > 150 | 1.17 (≈ 3.12 µM) | 9.37 (≈ 25 µM) | > 150 | > 150 | 37.5 (≈ 99.9 µM) |  | 22.7 (≈ 60.5 µM) | 2.7 (≈ 7.19 µM) | Activity [7]: inactive; inhibition (Staphylococcus aureus [17]): inactive |
| O=C(NCc1cn(Cc2ccc(F)c(Cl)c2)nn1)c1ccc([N+](=O)[O-])o1 | 1.17 (≈ 3.08 µM) | 2.34 (≈ 6.16 µM) | 1.17 (≈ 3.08 µM) | 254 | 18.8 (≈ 49.4 µM) | 37.5 (≈ 98.8 µM) | inactive | 344 | 18.8 (≈ 49.4 µM) | > 150 | 2.34 (≈ 6.16 µM) | 18.8 (≈ 49.4 µM) | 2.34 (≈ 6.16 µM) | 2.34 (≈ 6.16 µM) | > 150 | 18.8 (≈ 49.4 µM) | 18.8 (≈ 49.4 µM) | 13.6 (≈ 35.8 µM) | 12.2 (≈ 32.1 µM) | 1.1 (≈ 2.9 µM) | MIC [7]: 0.25 µg/mL (≈ 0.658 µM); Ratio [20]: 4; MIC (Enterococcus faecalis): > 64 µg/mL; MIC (Staphylococcus aureus [11]): 8 µg/mL (≈ 21.1 µM) |
| O=C(O)c1cn(C2CC2)c2cc(N3CCNCC3)c(F)cc2c1=O [CIPROFLOXACIN] | 0.58 (≈ 1.75 µM) | 0.58 (≈ 1.75 µM) | 1.17 (≈ 3.53 µM) | 181 | 0.58 (≈ 1.75 µM) | 1.17 (≈ 3.53 µM) |  | 192 | 0.58 (≈ 1.75 µM) | 0.58 (≈ 1.75 µM) | 0.58 (≈ 1.75 µM) | 0.58 (≈ 1.75 µM) | 0.58 (≈ 1.75 µM) | 1.17 (≈ 3.53 µM) | 0.58 (≈ 1.75 µM) | 0.58 (≈ 1.75 µM) | 0.58 (≈ 1.75 µM) |  |  |  |  |
| O=C(NCc1cn(Cc2ccc(C(F)(F)F)cc2)nn1)c1ccc([N+](=O)[O-])o1 | 1.17 (≈ 2.96 µM) | 2.34 (≈ 5.92 µM) | 4.68 (≈ 11.8 µM) | 321 | > 150 | > 150 | inactive | 289 | > 150 | > 150 | 2.34 (≈ 5.92 µM) | > 150 | 2.34 (≈ 5.92 µM) | 2.34 (≈ 5.92 µM) | > 150 | > 150 | > 150 | 64.7 (≈ 164 µM) |  | 8.4 (≈ 21.2 µM) | Activity [7]: inactive; inhibition (Raoultella planticola [18]): inactive |
| CC(=O)NC[C@H]1CN(c2ccc(N3CCOCC3)c(F)c2)C(=O)O1 [LINEZOLID] |  |  |  |  |  |  |  |  |  |  |  |  |  |  |  |  |  |  |  |  | MIC [7]: 1 µg/mL (≈ 2.96 µM); MIC (Staphylococcus aureus [11]): 8 µg/mL (≈ 23.7 µM) |
